Measured values as given in patent US11911386B2, “Methods of treating B-cell proliferative disorder” (BeiGene Switzerland GmbH, priority 2022, dated 2024).
Where “and” joins values, the source holds several entries; their conditions need not be identical. Equal entries are not always repeated. Where two headings read alike, the source gives them in different places.

Legend:
P-glycoprotein = target: T1, P-glycoprotein (Homo sapiens, UniProt P08183); settings: repeated dosing of zanubrutinib; cited from earlier work
T1 construct: endogenous in cells; host or cells: human subjects in vivo (clinical study)
T1 sequence (P08183 whole entry): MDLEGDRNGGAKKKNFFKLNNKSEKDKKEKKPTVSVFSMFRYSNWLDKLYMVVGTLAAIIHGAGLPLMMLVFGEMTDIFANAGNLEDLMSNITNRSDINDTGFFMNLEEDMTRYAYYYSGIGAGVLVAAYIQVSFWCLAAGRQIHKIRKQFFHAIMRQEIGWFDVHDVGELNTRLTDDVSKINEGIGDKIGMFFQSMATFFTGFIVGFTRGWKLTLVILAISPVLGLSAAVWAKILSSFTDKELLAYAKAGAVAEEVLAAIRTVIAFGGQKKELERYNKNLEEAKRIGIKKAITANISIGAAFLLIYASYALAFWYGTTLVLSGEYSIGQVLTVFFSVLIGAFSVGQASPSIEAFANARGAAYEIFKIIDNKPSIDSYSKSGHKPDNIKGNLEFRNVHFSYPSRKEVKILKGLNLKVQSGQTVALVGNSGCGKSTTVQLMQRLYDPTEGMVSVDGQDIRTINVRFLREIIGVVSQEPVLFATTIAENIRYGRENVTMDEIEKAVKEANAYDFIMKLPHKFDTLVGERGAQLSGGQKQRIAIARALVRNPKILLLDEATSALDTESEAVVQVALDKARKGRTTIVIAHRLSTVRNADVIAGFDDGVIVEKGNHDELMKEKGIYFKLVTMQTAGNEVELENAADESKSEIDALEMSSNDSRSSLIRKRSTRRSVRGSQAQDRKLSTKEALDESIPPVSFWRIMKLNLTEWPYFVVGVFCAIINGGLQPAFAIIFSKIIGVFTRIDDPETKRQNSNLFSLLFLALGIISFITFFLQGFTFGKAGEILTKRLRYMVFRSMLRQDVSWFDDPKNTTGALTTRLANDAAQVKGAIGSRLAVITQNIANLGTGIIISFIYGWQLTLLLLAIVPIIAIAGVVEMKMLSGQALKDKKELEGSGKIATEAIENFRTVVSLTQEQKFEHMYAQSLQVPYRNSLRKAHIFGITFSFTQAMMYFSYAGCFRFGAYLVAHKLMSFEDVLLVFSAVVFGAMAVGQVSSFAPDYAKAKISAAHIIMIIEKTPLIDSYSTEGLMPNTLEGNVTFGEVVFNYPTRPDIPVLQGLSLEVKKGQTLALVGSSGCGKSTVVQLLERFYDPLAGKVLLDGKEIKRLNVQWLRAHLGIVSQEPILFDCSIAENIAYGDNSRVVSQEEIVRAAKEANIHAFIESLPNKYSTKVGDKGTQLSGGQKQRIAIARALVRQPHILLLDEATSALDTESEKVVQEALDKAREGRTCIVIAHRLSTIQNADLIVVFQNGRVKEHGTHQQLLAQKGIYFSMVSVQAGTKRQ

[1] = system: previously treated B-cell malignancies (CLL/SLL, WM, MCL, MZL); test: Phase 2 (NCT04116437): investigator-assessed efficacy (ORR, DCR, DOR, PFS, OS); assay type: in vivo, human; settings: for Months to BOR, median: patients who responded
Method: PFS and patient-reported outcomes were assessed as secondary efficacy endpoints.
The study's secondary endpoints were: • ORR, defined as the proportion of patients achieving a best overall response (BOR) of CR, CRi, nodular partial response, partial response (PR), or partial response with lymphocytosis (PR-L) in patients with CLL; CR or PR in patients with SLL, MCL, or MZL; and CR, very good partial response, PR, or minor response (MR) in patients with WM before initiation of subsequent antineoplastic therapy. • DCR, defined as the proportion of patients who attain a BOR of stable disease or better before initiation of subsequent antineoplastic therapy. • Duration of response (DOR), defined as time from […] to date of first documented disease progression or death, whichever occurs first. • PFS, defined as time from first dose date to date of first documented disease progression or death, whichever occurs first. • Time to first response, defined as time from first dose to date of first qualifying response. For example, for a patient who attained a PR-L followed by PR for subsequent assessments, time to first response was the time from first dose to date of first PR-L. • Time to BOR, defined as time from first dose to date of best of overall response.
A patient's BOR was the best response recorded throughout the study prior to initiation of any new anticancer therapy and data cutoff. In some cases, the BOR could only be stable disease (e.g., if the patient was in CR at study entry) because patients were not required to progress prior to entering the study. • ORR was the proportion of patients who attained a BOR of: • PR-L or better (CR, CRi, nodular partial response, PR, PR-L) in patients with CLL; • PR or better (CR, PR) in patients with SLL, MCL, and MZL; • MR or better (CR, very good partial response, PR, MR) in patients with WM.
Per the Safety Analysis Set, patients without postbaseline disease assessment were considered non-responders. DCR was summarized with 95% exact confidence intervals. A sensitivity analysis of DCR was conducted in patients in the Efficacy Evaluable Set; patients who died or discontinued study prior to their first disease assessment due to adverse events were classified as not achieving disease control. An additional sensitivity analysis of DCR excluded patients with low disease burden, as defined above.
The PFS distribution and its related metrics such as median PFS and landmark rates were estimated using the Kaplan-Meier method with censoring rules as defined in Table 29.
Zanubrutinib capsules were taken orally with water and with or without food. Imaging and laboratory assessments at study entry were considered baseline for response assessment; patients were not required to meet criteria for initiation of treatment at study entry.

[2] = Phase 1 DDI study: single-dose zanubrutinib PK alone and with steady-state rifabutin (NCT04470908); assay type: in vivo, human; settings: for half-life: arithmetic mean (SD)
Excerpt: This study was designed, conducted, and monitored according to sponsor procedures, and complied with the ethical principles of Good Clinical Practice, International Council for Harmonisation of Technical Requirements for Pharmaceuticals for Human Use, the Declaration of Helsinki, and local regulatory requirements. All volunteers provided written, informed consent before study entry. Midlands Independent Review Board (MLIRB (now WCG IRB), Overland Park, Kansas) reviewed and approved the protocol at the respective study center.
Volunteers were screened for eligibility during the screening period (from day −28 through day −2). Those who met all the inclusion criteria and none of the exclusion criteria were admitted into the clinical research unit (CRU) on day −1 and confined to the CRU until discharge on day 13. […] Volunteers were discharged on day 13 after satisfactory completion of study-related procedures.
A single dose of rifabutin (300 mg) was given orally as 2×150 mg capsules with food on days 3-10 and in the fasted state on day 11.
Noncompartmental analysis was conducted using Phoenix® WinNonlin™ version 8.1 (Certara USA, Inc., Princeton, New Jersey, USA).
Protein precipitation was utilized to extract the analyte and internal standard from human plasma containing dipotassium ethylenediaminetetraacetic acid (K2EDTA) as an anticoagulant.
The geometric least squares mean (GLSM) and their ratios were obtained by taking the exponential of the corresponding estimates of LSM and their differences on the natural logarithm scale, where ratio=test/reference. Within-subject CV was calculated as 100×square root[exp(mean square error from the analysis model)−1].

[3] = Cohort 1 (prior ibrutinib), n = 57
[4] = Cohort 2 (prior acalabrutinib + ibrutinib), n = 7
[5] = Efficacy Evaluable Set, 68 patients
[6] = 320 mg zanubrutinib + 300 mg rifabutin (test)
[7] = 320 mg zanubrutinib + 300 mg rifabutin, median (min-max)

In the case of `C=CC(=O)N1CCC([C@@H]2CCNc3c(C(N)=O)c(-c4ccc(Oc5ccccc5)cc4)nn32)CC1` [zanubrutinib, (S)-7-(1-acryloylpiperidin-4-yl)-2-(4-phenoxyphenyl)-4,5,6,7-tetrahydropyrazolo[1,5-a]pyrimidine-3-carboxamide], the “Mean increase of digoxin AUC0-t” value (P-glycoprotein) is given as 11%, the “Mean increase of digoxin Cmax” value (P-glycoprotein) is given as 34% and the DCR ([1]; 160 mg bid group) is given as 95.0%. For the same compound, the ORR ([1]; 160 mg bid group) was 70.0%, the DCR ([1]; 320 mg qd group) was 91.7% and the ORR ([1]; 320 mg qd group) was 54.2%. For the same compound, the “BOR PD” value ([1]; Cohort 1) was 1 (1.8) n (%), the “BOR PR-L or better” value ([1]; Cohort 1) was 36 (63.2) n (%) and the “BOR SD” value ([1]; Cohort 1) was 18 (31.6) n (%). The “Months to first OR, median” value ([1]; Cohort 1) was 2.92 months, the “DCR (SD or better)” value [1, 3] was “(94.7, 85.4-98.9) %” and the “ORR (better than SD)” value [1, 3] was “(63.2, 49.3-75.6) %”. For the same compound, the “Months to BOR, median” value ([1]; Cohort 1) was 5.5 months, the “BOR PD” value ([1]; Cohort 2) was 1 (14.3) n (%) and the “BOR PR-L or better” value ([1]; Cohort 2) was 5 (71.4) n (%). The “BOR SD” value ([1]; Cohort 2) was 1 (14.3) n (%), the “Months to first OR, median” value ([1]; Cohort 2) was 3.02 months and the “DCR (SD or better)” value [1, 4] was “(85.7, 42.1-99.6) %”. The “ORR (better than SD)” value [1, 4] was “(71.4, 29.0-96.3) %”, the “Months to BOR, median” value ([1]; Cohort 2) was 7.9 months and the “BOR better than stable disease (ORR)” value [1, 5] was 67.6%. For the same compound, the “BOR of PR” value [1, 5] was 66.2%, the “BOR of stable disease or better (DCR)” value [1, 5] was 95.6% and the “BOR PD” value ([1]; Total) was 3.1 n (%) and 2 (3.1) n (%). The “BOR PR-L or better” value ([1]; Total) was 41 (64.1) n (%), the “BOR SD” value ([1]; Total) was 29.7 n (%) and 19 (29.7) n (%) and the “Months to first OR, median” value ([1]; Total) was 2.96 months. The “Months to BOR, median” value ([1]; Total) was 5.6 months, the “Median DOR” value ([1]; additional analysis) was “not reached” and the “Median PFS” value ([1]; additional analysis) was “not reached”. For the same compound, the “18-month event-free PFS rate” value ([1]; additional analysis, 67 patients) was 83.8%, the “Chance of being alive after 24 months” value ([1]; all patients) was 89.3% and the “Estimated probability of responding for at least 12 months” value ([1]; all patients) was 91.8%. For the same compound, the “Median DOR” value ([1]; all patients) was “not reached”, the ORR ([1]; excluding eight patients ineligible for PR due to low baseline disease burden) was 73.2% and the “12-month event-free DOR rate” value ([1]; in vivo) was 95.0%. The “Median time to first response (better than SD)” value ([1]; in vivo) was 3.0 months, the “Median PFS” value ([1]; overall) was “not reached” and the “PFS event-free rate at 18 months” value ([1]; overall (clinical study report cut-off)) was 80.4%. The “Estimated probability of responding for at least 12 months” value ([1]; patients with WM) was 100%, the “PFS event-free rate at 18 months” value ([1]; patients with WM) was 100% and the “BOR better than stable disease” value ([1]; patients with WM, 11 patients) was 90.9%. For the same compound, the “BOR of stable disease or better” value ([1]; patients with WM, 11 patients) was 100%, the “Very good partial response” value ([1]; patients with WM, 11 patients) was 45.5% and the “AUC0-t GLSM” value ([2]; 320 mg zanubrutinib (reference)) was 2700 ng·h/mL. The “AUC0-t GLSM” value [2, 6] was 1530 ng·h/mL, the “Cmax GLSM” value [2, 6] was 253 ng/mL and the Tlast [2, 7] was 36.0 (24.0-36.0) [13] h. For the same compound, the Tmax [2, 7] was 2.0 h, the Tlast ([2]; 320 mg zanubrutinib alone, median (min-max)) was 36.0 (24.0-36.0) [13] h and the AUC(0-t) ([2]; human, plasma, oral, 320 mg) was 2700 ng·h/mL. For the same compound, the Cmax ([2]; human, plasma, oral, 320 mg) was 489 ng/mL, the Vd/F ([2]; human, plasma, oral, 320 mg) was 1080 L and the AUC(0-inf) ([2]; human, plasma, oral, 320 mg zanubrutinib + 300 mg rifabutin (test), read-out: AUC0-∞ GLSM) was 1560 ng·h/mL. For the same compound, the half-life ([2]; human, plasma, oral, 320 mg zanubrutinib + 300 mg rifabutin) was 7 h, the AUC(0-inf) ([2]; human, plasma, oral, 320 mg zanubrutinib + 300 mg rifabutin, geometric mean (CV), read-out: AUC0-∞) was 1590 ng·h/mL and the AUC(0-inf) ([2]; human, plasma, oral, 320 mg, 320 mg zanubrutinib (reference), read-out: AUC0-∞ GLSM) was 2780 ng·h/mL. The half-life ([2]; human, plasma, oral, 320 mg, 320 mg zanubrutinib alone) was 7.2 h, the AUC(0-inf) ([2]; human, plasma, oral, 320 mg, 320 mg zanubrutinib alone, geometric mean (CV), read-out: AUC0-∞) was 2780 ng·h/mL and the Tmax ([2]; human, plasma, oral, 320 mg, read-out: Tmax) was 1.5 h. The “AUC0-t within-subject CV” value ([2]; in vivo) was 10.7%, the “AUC0-∞ within-subject CV” value ([2]; in vivo) was 7.0% and the “Cmax within-subject CV” value ([2]; in vivo) was 23.2%. For the same compound, the “Reduction in zanubrutinib exposure” value ([2]; with moderate CYP3A inducer, e.g. rifabutin) was “approximately 2 fold” and the “GMR (exposure)” value ([2]; with vs without rifabutin) was 57%.
